Assays:
[1] = Isothermal titration calorimetry: critical aggregation concentration and thermodynamics of aggregation; format: physicochemical; conditions: for −TΔSmic: Gibbs-Helmholtz equation; for −TΔSmic / ΔGmic: double-tailed series; for ΔGmic: approximated with RT ln(CAC/55.5); for CMC / ΔHmic: pure water, double-tailed M-P and M-1 series; for −TΔSagg term (sign, in words): Table 1
Method: Isothermal titration calorimetry (ITC) was used to determine the critical aggregation concentration (CAC) and the thermodynamic parameters at 37° C. associated with aggregate formation for each double-tailed amphiphile for the M-P and M-1 series, as shown in Table 1.
A Nano ITC was used to measure the heat change associated with the deaggregation of amphiphiles via power compensation. A concentrated aqueous solution of amphiphile (>>CAC) was titrated into a thermally controlled sample cell, initially containing pure water, in a series of discrete injections. Isothermal titration calorimetry was used to determine the critical aggregation concentration (CAC) and ΔHagg. Shown in FIG. 5 is the heat rate associated with each injection versus time for 9 (M-1,14,14). Shown in FIG. 6 is the integration of the heat per injection normalized by the number of moles of each injection versus the increasing concentration of amphiphile in the well. In FIG. 6, inset, CAC is determined by calculating the first derivative the heat curve.
During initial injections (Range I), measured heat changes are due to both the dilution of aggregates and deaggregation. This can be observed in the first 10 injections, where aggregates absorbed heat and disassociated into dissolved monomers. The heat change produced by each injection was approximately constant in this range. In Range II, injected aggregates don't fully dissociate, reducing the total absorbed heat for each subsequent injection. At concentrations well above the CAC (Range III), absorbed heat is attributed only to the dilution of aggregates and is approximately constant. […] CAC and thermodynamic data were not determined for the amphiphiles with the shortest tails [1 (M-P,8,8) and 6 (M-1,8,8)] because the heat evolved during injection was […] the threshold of the instrument.
The difference between the average heat of injections in Range I, representing the total heat due to the dilution of aggregates and deaggregation, and the average heat of injections in Range III, representing the heat due solely to the dilution of aggregates, gives the heat of deaggregation, ΔHdeagg. The ΔHdeagg for compound 9 (M-1,14,14) is 37 kJ/mol, corresponding to a heat of aggregate formation, ΔHagg, of −37 kJ/mol (ΔHagg=−ΔHdeagg).
The ΔGagg can be approximated for the aggregation of nonionic amphiphiles by the equation: ΔGagg=RT ln(CAC/55.5) (3)
where m is the concentration of counterions that associate with a aggregate and n is the number of monomers that associate to form an aggregate. […] BBA-Biomembranes. 2000, 1508, 69-85.)
The entropy of aggregation (ΔSagg) is dictated by a combination of entropic factors that favor or disfavor aggregate formation and can be approximated using the Gibbs-Helmholtz equation: ΔGagg=ΔHagg−TΔSagg (5)
CAC and ΔHagg were determined using a Nano-ITC (TA-Instruments). Prior to each experiment the sample cell was washed with dH2O (300 mL), ethanol (100 mL), dH2O (300 mL) and nanopure water (200 mL). Next, 950 μL of nanopure water was added to the sample cell. A concentrated aqueous solution (>>CAC) of amphiphile was prepared and equilibrated at 37° C. A 250 μL syringe was filled with the aqueous solution, and loaded into the Nano ITC. Multiple single injections in aliquots of 5 μL were injected into the sample cell with time intervals varying from 300 s to 1400 s. Samples were continuously stirred (300 rpm) throughout the titration. The Nano-Analyze program (TA-Instruments) was used to analyze the data. CAC and ΔHagg values reported are the average of two or more repeat experiments for each amphiphile.

Pseudomonas aeruginosa = assay: Minimum inhibitory concentration, P. aeruginosa; format: cell-based, Pseudomonas aeruginosa ATCC 27853; conditions: Mueller-Hinton Broth, 37° C., 72 h
Method: (§1) The MIC values of all compounds from both double-tailed series were determined for four Gram-positive (Staphylococcus aureus, Enterococcus faecalis, Streptococcus agalactiae, and Bacillus cereus) and two Gram-negative (Escherichia coli and Pseudomonas aeruginosa) strains, which are shown in Table 3.
(§2) The Gram-positive bacterial strains used tested were Staphylococcus aureus subsp. aureus ATCC® 29213™, Enterococcus faecalis ATCC® 29212™, Bacillus cereus, and Streptococcus agalactiae J48.^58 The Gram-negative bacterial strains used were Escherichia coli ATCC® 25922™ and Pseudomonas aeruginosa ATCC® 27853™. All strains were grown in 1× Mueller-Hinton Broth at 37° C. for 12-24 h. For the MIC and combination studies, bacterial suspensions were prepared by diluting overnight cultures to 5×10^6 CFU/mL in 2× Mueller-Hinton Broth, so that when amphiphile solutions are added the final broth strength is 1×.
(§3) The methods used to determine the MIC and MBC were performed as previously described and followed the standards set forth by the Clinical and Laboratory Standards Institute (See Ladow, J. E.; Warnock, D. C.; Hamill, K. M.; Simmons, K. L.; Davis, R. W.; Schwantes, C. R.; Flaherty, D. C.; Willcox, J. A. L.; Wilson-Henjum, K.; Caran, K. L.; Minbiole, K. P. C.; Seifert, K. Bicephalic amphiphile architecture affects antibacterial activity. Eur. J. Med. Chem. 2011, 46, 4219-4226 and P. A. Wayne Methods for dilution antimicrobial tests for bacteria that grow aerobically. 2009.). Briefly, compounds were serially diluted and 100 μL of each dilution were added to the wells of a 96-well flat-bottomed microtiter plate in triplicate. After adding 100 μL of the bacterial cell suspension, the plates were incubated at 37° C. for 72 h. […] The MIC was considered to be bactericidal if the MBC was the same concentration or one concentration higher in the dilution series as the MIC, per Motyl, M.; Dorso, K.; Barrett, J.; Giacobbe, R. Basic microbiological techniques used in antibacterial drug discovery. Curr. Protoc. Pharmacol. 2006, Chapter 13.

Staphylococcus aureus = assay: Minimum inhibitory concentration, S. aureus; format: cell-based, Staphylococcus aureus subsp. aureus ATCC 29213; conditions: Mueller-Hinton Broth, 37° C., 72 h
Method: as §1, §2, §3

Escherichia coli = assay: Minimum inhibitory concentration, E. coli; format: cell-based, Escherichia coli ATCC 25922; conditions: Mueller-Hinton Broth, 37° C., 72 h
Method: as §1, §2, §3

Bacillus cereus = assay: Minimum inhibitory concentration, B. cereus; format: cell-based; conditions: Mueller-Hinton Broth, 37° C., 72 h
Method: as §1, §2, §3

Streptococcus agalactiae = assay: Minimum inhibitory concentration, S. agalactiae; format: cell-based, Streptococcus agalactiae J48; conditions: Mueller-Hinton Broth, 37° C., 72 h
Method: as §1, §2, §3

Enterococcus faecalis = assay: Minimum inhibitory concentration, E. faecalis; format: cell-based, Enterococcus faecalis ATCC 29212; conditions: Mueller-Hinton Broth, 37° C., 72 h
Method: as §1, §2, §3

[2] = Isothermal titration calorimetry: critical aggregation concentration and thermodynamics of aggregation; format: physicochemical; conditions: 37° C., single-tailed M-1,1,n series; for CAC: ITC

Row | Compound | −TΔSmic ([1]; 37° C.) | ΔGmic ([1]; 37° C.) | CMC ([1]; ITC, 37° C.) | ΔHmic ([1]; ITC, 37° C.) | −TΔSagg term (sign, in words) [1] | MIC P. aeruginosa (G−) (Pseudomonas aeruginosa) | MIC S. aureus (G+) (Staphylococcus aureus) | MIC E. coli (G−) (Escherichia coli) | MIC B. cereus (G+) (Bacillus cereus) | MIC S. agalactiae (G+) (Streptococcus agalactiae) | MIC E. faecalis (G+) (Enterococcus faecalis) | ΔHagg ([1]; ITC, 37° C.) | ΔGagg [2] | −TΔSagg [2] | CAC [2] | ΔHdeagg (heat of deaggregation) ([1]; ITC, 37° C., Range I minus Range III)
1 | CCCCCCCCCCCCCCCC[N+](C)(C)Cc1cc(C[N+](C)(C)C)cc(C[N+](C)(C)CCCCCCCCCCCCCCCC)c1.[Br-].[Br-].[Br-] [Compound 10] | -5.26 kcal/mol | -7.89 kcal/mol | 0.16 mM | -13.1 kcal/mol | positive | >250 µM | 16 µM | 63 µM | 16 µM | 8 µM | 32 µM |  |  |  |  | 
2 | CCCCCCCCCCCCCC[N+](C)(C)Cc1cc(C[n+]2ccccc2)cc(C[N+](C)(C)CCCCCCCCCCCCCC)c1.[Br-].[Br-].[Br-] [Compound 4] | -2.08 kcal/mol | -7.17 kcal/mol | 0.56 mM | -9.08 kcal/mol | positive | 63 µM | 4 µM | 16 µM | 8 µM | 4 µM | 4 µM |  |  |  |  | 
3 | CCCCCCCCCCCC[N+](C)(C)Cc1cc(C[n+]2ccccc2)cc(C[N+](C)(C)CCCCCCCCCCCC)c1.[Br-].[Br-].[Br-] [Compound 3] | 0.741 kcal/mol | -6.21 kcal/mol | 2.4 mM | -5.5 kcal/mol | negative | 8 µM | 2 µM | 4 µM | 2 µM | 1 µM | 2 µM |  |  |  |  | 
4 | CCCCCCCCCCCCCCCCCCCC[N+](C)(C)Cc1cc(C[N+](C)(C)C)cc(C[N+](C)(C)C)c1.[Br-].[Br-].[Br-] [Compound S7] |  |  |  |  |  | 250 µM | 16 µM | 31 µM | 4 µM | 4 µM | 4 µM | -6.69 kcal/mol | -6.21 kcal/mol | 0.382 kcal/mol | 2.0 mM | 
5 | CCCCCCCCCCCCCC[N+](C)(C)Cc1cc(C[N+](C)(C)C)cc(C[N+](C)(C)C)c1.[Br-].[Br-].[Br-] [Compound S4] |  |  |  |  |  | >250 µM | 63 µM | 250 µM | 16 µM | 16 µM | 31 µM | -2.39 kcal/mol | -4.78 kcal/mol | -2.39 kcal/mol | 21 mM | 
6 | CCCCCCCCCCCCCCCC[N+](C)(C)Cc1cc(C[N+](C)(C)C)cc(C[N+](C)(C)C)c1.[Br-].[Br-].[Br-] [Compound S5] |  |  |  |  |  | >250 µM | 31 µM | 31 µM | 4 µM | 4 µM | 8 µM | -3.35 kcal/mol | -5.26 kcal/mol | -2.03 kcal/mol | 9.2 mM | 
7 | CCCCCCCCCCCC[N+](C)(C)Cc1cc(C[N+](C)(C)C)cc(C[N+](C)(C)CCCCCCCCCCCC)c1.[Br-].[Br-].[Br-] [Compound 8] | 0.0196 kcal/mol | -6.21 kcal/mol | 2.5 mM | -6.21 kcal/mol | negative | 16 µM | 2 µM | 4 to 8 µM | 2 µM | 2 µM | 2 µM |  |  |  |  | 
8 | CCCCCCCCCCCCCC[N+](C)(C)Cc1cc(C[N+](C)(C)C)cc(C[N+](C)(C)CCCCCCCCCCCCCC)c1.[Br-].[Br-].[Br-] [Compound 9] | -1.91 kcal/mol | -6.93 kcal/mol | 0.61 mM | -8.84 kcal/mol | positive | 125 µM | 4 to 8 µM | 8 µM | 4 µM | 2 to 4 µM | 4 µM | -8.84 kcal/mol |  |  |  | 8.84 kcal/mol
9 | CCCCCCCCCC[N+](C)(C)Cc1cc(C[N+](C)(C)C)cc(C[N+](C)(C)CCCCCCCCCC)c1.[Br-].[Br-].[Br-] [Compound 7] | 1.58 kcal/mol | -5.26 kcal/mol | 12 mM | -3.59 kcal/mol | negative | >250 µM | 16 µM | 125 µM | 8 µM | 4 µM | 8 µM |  |  |  |  | 
10 | CCCCCCCCCCCCCCCC[N+](C)(C)Cc1cc(C[n+]2ccccc2)cc(C[N+](C)(C)CCCCCCCCCCCCCCCC)c1.[Br-].[Br-].[Br-] [Compound 5] | -2.2 kcal/mol | -7.89 kcal/mol | 0.18 mM | -10 kcal/mol | positive | >250 µM | 32 µM | 125 µM | 32 µM | 4 µM | 32 µM |  |  |  |  | 
11 | CCCCCCCCCC[N+](C)(C)Cc1cc(C[n+]2ccccc2)cc(C[N+](C)(C)CCCCCCCCCC)c1.[Br-].[Br-].[Br-] [Compound 2] | 2.39 kcal/mol | -5.02 kcal/mol | 14 mM | -2.63 kcal/mol | negative | 63 µM | 2 µM | 16 µM | 8 µM | 8 µM | 8 µM |  |  |  |  | 
